This assay deals with T1, glucocorticoid receptor (Homo sapiens, UniProt P04150).
T1 construct: endogenous in cells; ATCC cat
T1 sequence (P04150 1-777): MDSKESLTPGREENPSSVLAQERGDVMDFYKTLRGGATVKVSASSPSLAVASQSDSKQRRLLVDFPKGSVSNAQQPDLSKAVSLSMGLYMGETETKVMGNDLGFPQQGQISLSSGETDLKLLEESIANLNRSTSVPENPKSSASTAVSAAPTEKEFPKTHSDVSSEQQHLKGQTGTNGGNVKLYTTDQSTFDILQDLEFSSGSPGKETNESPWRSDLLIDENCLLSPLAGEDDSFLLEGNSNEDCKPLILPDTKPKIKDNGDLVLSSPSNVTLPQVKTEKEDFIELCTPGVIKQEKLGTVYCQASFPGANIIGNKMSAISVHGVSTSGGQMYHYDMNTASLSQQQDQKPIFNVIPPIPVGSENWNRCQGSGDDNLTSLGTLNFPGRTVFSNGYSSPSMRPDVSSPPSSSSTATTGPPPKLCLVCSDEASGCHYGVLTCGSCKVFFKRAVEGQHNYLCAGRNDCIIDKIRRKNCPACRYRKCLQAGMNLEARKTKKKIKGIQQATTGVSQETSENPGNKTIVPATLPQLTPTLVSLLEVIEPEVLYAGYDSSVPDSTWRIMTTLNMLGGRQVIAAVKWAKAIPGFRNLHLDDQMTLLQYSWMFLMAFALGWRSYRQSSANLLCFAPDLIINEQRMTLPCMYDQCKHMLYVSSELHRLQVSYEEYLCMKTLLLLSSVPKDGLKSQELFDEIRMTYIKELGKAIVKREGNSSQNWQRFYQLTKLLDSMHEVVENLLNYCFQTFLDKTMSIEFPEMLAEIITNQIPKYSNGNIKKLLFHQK
The assay can be described thus: Hep G2 TAT Ki: inhibition of dexamethasone-induced TAT in HepG2 cells (96 well). It counts as cell-based. The settings on record: challenge of 100 nM dexamethasone, IC50 converted to Ki by Cheng and Prusoff equation. The method, boiled down: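 Cells lysed 15 min at 4 °C; TAT enzyme reaction 2 h at 37 °C, stopped with KOH, 30 min further at 37 °C. Inhibition fitted to 4-parameter logistic.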
A word on the Ki: it is the equilibrium dissociation constant of an inhibitor or competing ligand from its target. A low value points to higher affinity. For `Cc1cc2c(cnn2-c2ccc(F)cc2)cc1C1CN(S(=O)(=O)c2cnn(C)n2)CCN1Cc1cccnc1` (stereo not shown) [Example 18, 1-(4-fluorophenyl)-6-methyl-5-(4-((2-methyl-2H-1,2,3-triazol-4-yl)sulfonyl)-1-(pyridin-3-ylmethyl)piperazin-2-yl)-1H-indazole], the Ki came out at 330 nM. Next, `Cc1cc2c(cnn2-c2ccc(F)cc2)cc1C1CN(S(=O)(=O)c2cnn(C)n2)CCN1C(C)C` (stereo not shown) [Example 19, 1-(4-fluorophenyl)-5-(1-isopropyl-4-((2-methyl-2H-1,2,3-triazol-4-yl)sulfonyl)piperazin-2-yl)-6-methyl-1H-indazole]: 140 nM; `COc1cc2c(cnn2-c2ccc(F)cc2)cc1C1CN(S(=O)(=O)c2cnn(C)n2)CCN1CC(C)C` (stereo not shown) [Example 22, 1-(4-fluorophenyl)-5-(1-isobutyl-4-((2-methyl-2H-1,2,3-triazol-4-yl)sulfonyl)piperazin-2-yl)-6-methoxy-1H-indazole]: 57 nM. Next, `CC(C)CN1CCN(S(=O)(=O)c2cnn(C)n2)CC1c1cc2cnn(-c3ccc(F)cc3)c2cc1Cl` (stereo not shown) [Example 24, 6-chloro-1-(4-fluorophenyl)-5-(1-isobutyl-4-((2-methyl-2H-1,2,3-triazol-4-yl)sulfonyl)piperazin-2-yl)-1H-indazole]: 73 nM.

The compound `Cc1cc2c(cnn2-c2ccc(F)cc2)cc1[C@@H]1CN(S(=O)(=O)c2cnn(C)n2)CCN1C[C@@H](C)C(F)(F)F` [Example 32, 1-(4-fluorophenyl)-6-methyl-5-((R)-4-((2-methyl-2H-1,2,3-triazol-4-yl)sulfonyl)-1-((R)-3,3,3-trifluoro-2-methylpropyl)piperazin-2-yl)-1H-indazole] yielded a Ki of 19 nM. With `CC(=O)N1CCN(S(=O)(=O)c2cnn(C)n2)CC1c1cc2cnn(-c3ccc(F)cc3)c2cc1C` (stereo not shown) [Example 34, 1-(2-(1-(4-fluorophenyl)-6-methyl-1H-indazol-5-yl)-4-((2-methyl-2H-1,2,3-triazol-4-yl)sulfonyl)piperazin-1-yl)ethan-1-one], the Ki came out at 430 nM. Take `Cc1cc2c(cnn2-c2ccc(F)cc2)cc1C1CN(S(=O)(=O)c2cnn(C)n2)CCN1C(=O)C(C)C` (stereo not shown) [Example 35, 1-(2-(1-(4-fluorophenyl)-6-methyl-1H-indazol-5-yl)-4-((2-methyl-2H-1,2,3-triazol-4-yl)sulfonyl)piperazin-1-yl)-2-methylpropan-1-one]: affinity was put at a Ki of 770 nM.

The compound `Cc1cc2c(cnn2-c2ccc(F)cc2)cc1C1CN(S(=O)(=O)c2cnn(C3CCOCC3)c2)CCN1CC(C)C` (stereo not shown) [Example 36, 1-(4-fluorophenyl)-5-(1-isobutyl-4-((1-(tetrahydro-2H-pyran-4-yl)-1H-pyrazol-4-yl)sulfonyl)piperazin-2-yl)-6-methyl-1H-indazole] gave a Ki of 50 nM. `Cc1cc2c(cnn2-c2ccc(F)cc2)cc1C1CN(S(=O)(=O)c2cnn(C(C)C)n2)CCN1CC(C)C` (stereo not shown) [Example 37, 1-(4-fluorophenyl)-5-(1-isobutyl-4-((2-isopropyl-2H-1,2,3-triazol-4-yl)sulfonyl)piperazin-2-yl)-6-methyl-1H-indazole] gave a Ki of 76 nM. Next, `CCn1cc(S(=O)(=O)N2CCN(CC(C)C)C(c3cc4cnn(-c5ccc(F)cc5)c4cc3C)C2)cn1` (stereo not shown) [Example 38, 5-(4-((1-ethyl-1H-pyrazol-4-yl)sulfonyl)-1-isobutylpiperazin-2-yl)-1-(4-fluorophenyl)-6-methyl-1H-indazole]: 46 nM.

The compound `Cc1cc2c(cnn2-c2ccc(F)cc2)cc1C1CN(S(C)(=O)=O)CCN1CC(C)C` (stereo not shown) [Example 39, 1-(4-fluorophenyl)-5-(1-isobutyl-4-(methylsulfonyl)piperazin-2-yl)-6-methyl-1H-indazole] returned an inhibition constant Ki of 57 nM. As for `CCn1ncc(S(=O)(=O)N2CCN(CC(C)C)C(c3cc4cnn(-c5ccc(F)cc5)c4cc3C)C2)n1` (stereo not shown) [Example 40, 5-(4-((2-ethyl-2H-1,2,3-triazol-4-yl)sulfonyl)-1-isobutylpiperazin-2-yl)-1-(4-fluorophenyl)-6-methyl-1H-indazole], the Ki was determined as 53 nM.

Regarding `CCCn1ncc(S(=O)(=O)N2CCN(CC(C)C)C(c3cc4cnn(-c5ccc(F)cc5)c4cc3C)C2)n1` (stereo not shown) [Example 41, 1-(4-fluorophenyl)-5-(1-isobutyl-4-((2-propyl-2H-1,2,3-triazol-4-yl)sulfonyl)piperazin-2-yl)-6-methyl-1H-indazole], the inhibitory constant (Ki) came to 60 nM. To `Cc1cc2c(cnn2-c2ccc(F)cc2)cc1C1CN(S(=O)(=O)c2ccn(C)n2)CCN1CC(C)C` (stereo not shown) [Example 42, 1-(4-fluorophenyl)-5-(1-isobutyl-4-((1-methyl-1H-pyrazol-3-yl)sulfonyl)piperazin-2-yl)-6-methyl-1H-indazole] belongs 40 nM; to `Cc1cc2c(cnn2-c2ccc(F)cc2)cc1C1CN(S(=O)(=O)c2cncc(F)c2)CCN1CC(C)C` (stereo not shown) [Example 43, 1-(4-fluorophenyl)-5-(4-((5-fluoropyridin-3-yl)sulfonyl)-1-isobutylpiperazin-2-yl)-6-methyl-1H-indazole], 76 nM. Compound `Cc1cc2c(cnn2-c2ccc(F)cc2)cc1C1CN(S(=O)(=O)C2CCOCC2)CCN1CC(C)C` (stereo not shown) [Example 44, 1-(4-fluorophenyl)-5-(1-isobutyl-4-((tetrahydro-2H-pyran-4-yl)sulfonyl)piperazin-2-yl)-6-methyl-1H-indazole] yielded a Ki of 93 nM. To `Cc1cc2c(cnn2-c2ccc(F)cc2)cc1C1CN(C(=O)C(C)O)CCN1CC(C)C` (stereo not shown) [Example 65, 1-(3-(1-(4-fluorophenyl)-6-methyl-1H-indazol-5-yl)-4-isobutylpiperazin-1-yl)-2-hydroxypropan-1-one] belongs 370 nM. Regarding `CC(=O)N1CCN(CC(C)C)C(c2cc3cnn(-c4ccc(F)cc4)c3cc2C)C1` (stereo not shown) [Example 66, 1-(3-(1-(4-fluorophenyl)-6-methyl-1H-indazol-5-yl)-4-isobutylpiperazin-1-yl)ethan-1-one], affinity was put at a Ki of 260 nM. In the case of `Cc1cc2c(cnn2-c2ccc(F)cc2)cc1C1CN(C(=O)c2cnn(C)n2)CCN1CC(C)C` (stereo not shown) [Example 67, (3-(1-(4-fluorophenyl)-6-methyl-1H-indazol-5-yl)-4-isobutylpiperazin-1-yl)(2-methyl-2H-1,2,3-triazol-4-yl)methanone], the affinity, expressed as Ki, was 390 nM.

In turn, `Cc1cc2c(cnn2-c2ccc(F)cc2)cc1C1CN(S(=O)(=O)c2cnn(C)n2)CCN1CCCC(F)(F)F` (stereo not shown) [Example 68, 1-(4-fluorophenyl)-6-methyl-5-(4-((2-methyl-2H-1,2,3-triazol-4-yl)sulfonyl)-1-(4,4,4-trifluorobutyl)piperazin-2-yl)-1H-indazole] had an inhibition constant Ki of 58 nM. Next, `Cc1cc2c(cnn2-c2ccc(F)cc2)cc1C1CN(S(=O)(=O)c2cnn(C)n2)CCN1CC1(C#N)CC1` (stereo not shown) [Example 69, 1-((2-(1-(4-fluorophenyl)-6-methyl-1H-indazol-5-yl)-4-((2-methyl-2H-1,2,3-triazol-4-yl)sulfonyl)piperazin-1-yl)methyl)cyclopropane-1-carbonitrile]: 180 nM.

Take `Cc1cc2c(cnn2-c2ccc(F)cc2)cc1C1CN(S(=O)(=O)c2cnn(C)n2)CCN1Cc1ccccn1` (stereo not shown) [Example 70, 1-(4-fluorophenyl)-6-methyl-5-(4-((2-methyl-2H-1,2,3-triazol-4-yl)sulfonyl)-1-(pyridin-2-ylmethyl)piperazin-2-yl)-1H-indazole]: the affinity corresponds to a Ki of 170 nM.
